Earlier results, collected in PubChem BioAssay AID1259410 (Chemical Carcinogenesis Research Information System (CCRIS), 2018).

Tested on: rodent tumor promotion studies, tumor incidence
Experiment: CCRIS tumor promotion studies

CCC(=O)O[C@H]1CC[C@H]2[C@@H]3CCC4=CC(=O)CC[C@]4(C)[C@H]3CC[C@]12C
outcome (Carcinogen: 3,2'-DIMETHYL-4-AMINOBIPHENYL, 13394-86-0, Doses [Carcinogen]: 50 MG/KG 1/2 WK FOR 20 WK, Doses [Promoter]: CONTINUOUS ADMINISTRATION TO CASTRATED RATS FOR 40 WK, IMPLANTS REPLACED AT 6-WK INTERVALS (STUDY DURATION: 60 WK), Route [Carcinogen]: SUBCUTANEOUS, Route [Promoter]: SUBCUTANEOUS IMPLANT, Species: RAT, Strain/Sex: F344/MALE): prostate: carcinoma; seminal vesicle: carcinoma | outcome (Carcinogen: 3,2'-DIMETHYL-4-AMINOBIPHENYL, 13394-86-0, Doses [Carcinogen]: 50 MG/KG 1/2 WK FOR A TOTAL OF 10 INJECTIONS, Doses [Promoter]: 0, 40 MG IN SILASTIC TUBES IMPLANTED 1 WK PRIOR TO CARCINOGEN TREATMENT AND CONTINUING FOR DURATION OF STUDY WITH REPLAC, Route [Carcinogen]: SUBCUTANEOUS, Route [Promoter]: SUBCUTANEOUS IMPLANT, Species: RAT, Strain/Sex: F344/MALE): dorsolateral prostate: carcinoma; seminal vesicle: carcinoma | outcome (Carcinogen: 3,2'-DIMETHYL-4-AMINOBIPHENYL, 13394-86-0, Doses [Carcinogen]: 50 MG/KG 1/2 WK FOR A TOTAL OF 10 INJECTIONS, Doses [Promoter]: 0, 100 MG/KG 1/D FOR 3 D PRECEDING EACH CARCINOGEN DOSE (STUDY DURATION: 56 WK), Route [Carcinogen]: SUBCUTANEOUS, Route [Promoter]: SUBCUTANEOUS, Species: RAT, Strain/Sex: F344/MALE): skin/subcutis: tumor | outcome (Carcinogen: 3,2'-DIMETHYL-4-AMINOBIPHENYL, 13394-86-0, Doses [Carcinogen]: 50 MG/KG 1/2 WK FOR A TOTAL OF 10 INJECTIONS, Doses [Promoter]: 0, 100 MG/KG 1/D FOR 3 D PRECEDING EACH CARCINOGEN DOSE THEN 0, 40 MG IN SILASTIC TUBES IMPLANTED POST LAST CARCINOGEN D, Doses [Promoter]: 0, 100 MG/KG 1/D FOR 3 D PRECEDING EACH CARCINOGEN DOSE THEN 0, 40 MG IN SILASTIC TUBES IMPLANTED POST LAST CARCINOGEN D, Route [Carcinogen]: SUBCUTANEOUS, Route [Promoter]: SUBCUTANEOUS, Species: RAT, Strain/Sex: F344/MALE): dorsolateral prostate: carcinoma; seminal vesicles: carcinoma | outcome (Carcinogen: 3,2'-DIMETHYL-4-AMINOBIPHENYL, 13394-86-0, Doses [Carcinogen]: 50 MG/KG BW 1/2 WK FOR 10 DOSES, Doses [Promoter]: 20, 40 MG/SILASTIC TUBE IMPLANT REPLACED AT 6 WK INTERVALS (STUDY DURATION: 60 WK), Route [Carcinogen]: SUBCUTANEOUS, Route [Promoter]: SUBCUTANEOUS, Species: RAT, Strain/Sex: F344/MALE): prostate (anterior): carcinoma; seminal vesicles: carcinoma | outcome (Carcinogen: 3,2'-DIMETHYL-4-AMINOBIPHENYL, 58109-32-3, Doses [Carcinogen]: 50 MG/KG BW 1/2 WK FOR 20 WK, Doses [Promoter]: 0, 40 MG BEGINNING POST CARCINOGEN TREATMENT AND RENEWED AT 6 WK INTERVALS FOR 40 WK (STUDY DURATION: 60 WK), Route [Carcinogen]: SUBCUTANEOUS, Route [Promoter]: SUBCUTANEOUS IMPLANT, Species: RAT, Strain/Sex: F344/MALE): seminal vesicles: carcinoma | outcome (Carcinogen: 17 BETA-ESTRADIOL [50-28-2], Doses [Carcinogen]: 22 MG AT 3 MO OF AGE ONCE/3 MO FOR 1 YR, Doses [Promoter]: 0, 60 MG AT 3 MO OF AGE ONCE/3 MO FOR 1 YR (STUDY DURATION: 1 YR), Route [Carcinogen]: SUBCUTANEOUS IMPLANT, Route [Promoter]: SUBCUTANEOUS IMPLANT, Species: RAT, Strain/Sex: NOBLE/FEMALE (?,18)/(?/15)): mammary gland: tumor | outcome (Carcinogen: 17 BETA-ESTRADIOL, 50-28-2, Doses [Carcinogen]: 22 MG AT 3 MO OF AGE ONCE EVERY 3 MO FOR 1 YR, Doses [Promoter]: 0, 120 MG AT 3 MO OF AGE, 1/3 MO FOR 1 YR (STUDY DURATION: 1 YR), Route [Carcinogen]: SUBCUTANEOUS IMPLANT, Route [Promoter]: SUBCUTANEOUS IMPLANT, Species: RAT, Strain/Sex: NOBLE/FEMALE): mammary gland: tumor | outcome (Carcinogen: N-BUTYL-N-(4-HYDROXYBUTYL)NITROSAMINE [3817-11-6], Doses [Carcinogen]: 0.05% IN DRINKING WATER FOR 18 WK (STUDY DURATION: 18 WK), Doses [Promoter]: 0, 3 MG/KG BW FOR 18 WK (STUDY DURATION: 18 WK), Route [Carcinogen]: ORAL, Route [Promoter]: INTRAMUSCULAR, Species: MOUSE, Strain/Sex: C57B6/6/MALE): urinary bladder: tumor | outcome (Carcinogen: N-METHYL-N-NITROSOUREA, 684-93-5, Doses [Carcinogen]: 30 MG/KG BW ONCE, Doses [Promoter]: 0, 25 MG IMPLANT CHANGED AT 2 MO INTERVALS FOR A TOTAL OF 3 TIMES (STUDY DURATION: 14 MO), Route [Carcinogen]: INTRAVENOUS, Route [Promoter]: SUBCUTANEOUS IMPLANT, Species: RAT, Strain/Sex: LOBUND-WISTAR/MALE): prostate/seminal vesicles: tumor | outcome (Carcinogen: N-METHYL-N-NITROSOUREA, 684-93-5, Doses [Carcinogen]: 30 MG/KG ONCE, Doses [Promoter]: 0, 50 MG IN SILASTIC MEMBRANE IMPLANT BEGINNING 1 MO POST CARCINOGEN DOSE AND REPEATED AT INTERVALS OF 2 MO FOR A TOTAL, Route [Carcinogen]: INTRAVENOUS, Route [Promoter]: SUBCUTANEOUS IMPLANT, Species: RAT, Strain/Sex: LOBUND-WISTAR/MALE): prostate: adenocarcinoma | outcome (Carcinogen: N-METHYL-N-NITROSOUREA, 684-93-5, Doses [Carcinogen]: 30 MG/KG ONCE, Doses [Promoter]: 0, 50 MG IN SILASTIC MEMBRANE IMPLANT BEGINNING 1 WK POST CARCINOGEN DOSE AND REPEATED AT INTERVALS OF 2 MO FOR A TOTAL, Route [Carcinogen]: INTRAVENOUS, Route [Promoter]: SUBCUTANEOUS IMPLANT, Species: RAT, Strain/Sex: LOBUND-WISTAR/MALE): prostate: adenocarcinoma | outcome (Carcinogen: N-METHYL-N-NITROSOUREA, 684-93-5, Doses [Carcinogen]: 30 MG/KG ONCE, Doses [Promoter]: 0, 50 MG IN SILASTIC MEMBRANE IMPLANT BEGINNING 1 WK POST CARCINOGEN DOSE FOLLOWED BY SECOND IMPLANT 2 MO LATER (STUDY D, Route [Carcinogen]: INTRAVENOUS, Route [Promoter]: SUBCUTANEOUS IMPLANT, Species: RAT, Strain/Sex: LOBUND-WISTAR/MALE): prostate: adenocarcinoma | outcome (Carcinogen: N-METHYL-N-NITROSOUREA, 684-93-5, Doses [Carcinogen]: 30 MG/KG ONCE, Doses [Promoter]: 0, 50 MG IN SILASTIC MEMBRANE IMPLANT BEGINNING 2 MO POST CARCINOGEN DOSE AND REPEATED AT INTERVALS OF 2 MO FOR A TOTAL, Route [Carcinogen]: INTRAVENOUS, Route [Promoter]: SUBCUTANEOUS IMPLANT, Species: RAT, Strain/Sex: LOBUND-WISTAR/MALE): prostate: adenocarcinoma | outcome (Carcinogen: N-METHYLNITROSOUREA, 684-93-5, Doses [Carcinogen]: 15 MG/KG/BW 1/4 WK FOR 5 INJECTIONS EACH FOLLOWING 2 WK PRETREATMENT WITH DIETARY ETHINYL ESTRADIOL, Doses [Promoter]: 0, 40 MG IMPLANTS REPLACED AT 6 WK INTERVALS FOR 40 WK IN RATS MAINTAINED ON DIETS WITH OR WITHOUT HIGH FAT CONTENT (20%, Route [Carcinogen]: INTRAVENOUS, Route [Promoter]: SUBCUTANEOUS IMPLANT, Species: RAT, Strain/Sex: F344/MALE): seminal vesicles: carcinoma; congulating glands: carcinoma | outcome (Carcinogen: N-NITROSOBIS(2-OXOPROPYL)AMINE, 60599-38-4, Doses [Carcinogen]: 20 MG/KG 1/4 WK FOR 5 INJECTIONS EACH FOLLOWING 2 WK PRETREATMENT WITH DIETARY ETHINYL ESTRADIOL, Doses [Promoter]: 0, 40 MG IMPLANTS REPLACED AT 6 WK INTERVALS FOR 40 WK IN RATS MAINTAINED ON DIETS WITH OR WITHOUT HIGH FAT CONTENT (20%, Route [Carcinogen]: SUBCUTANEOUS, Route [Promoter]: SUBCUTANEOUS IMPLANT, Species: RAT, Strain/Sex: F344/MALE): seminal vesicles: carcinoma

CN(C)C(=S)SSC(=S)N(C)C
outcome (Carcinogen: 7,12-DIMETHYLBENZ[A]ANTHRACENE, 57-97-6, Doses [Carcinogen]: 52 UG IN 100 µL ACETONE ONCE, Doses [Promoter]: 0, 100 MG/KG BW IN 100 µL DMSO 3/WK FOR 51 WK BEGINNING 1 WK POST CARCINOGEN DOSE (STUDY DURATION: 52 WK), Route [Carcinogen]: DERMAL, Route [Promoter]: DERMAL, Species: MOUSE, Strain/Sex: SWISS/FEMALE): skin: tumor | outcome (Carcinogen: 7,12-DIMETHYLBENZ[A]ANTHRACENE, 57-97-6, Doses [Carcinogen]: 52 UG IN 100 µL ACETONE ONCE, Doses [Promoter]: 0, 100 MG/KG BW IN 100 µL DMSO 3/WK FOR 51 WK BEGINNING 1 WK POST CARCINOGEN DOSE (STUDY DURATION: 52 WK), Route [Carcinogen]: DERMAL, Route [Promoter]: DERMAL, Species: MOUSE, Strain/Sex: SWISS/MALE): skin: tumor

Cn1c(=O)c2c(ncn2C)n(C)c1=O
outcome (Carcinogen: N-NITROSOBIS(2-OXOPROPYL)AMINE, 60599-38-4, Doses [Carcinogen]: 10 MG/KG 1/WK FOR 3 WK, Doses [Promoter]: 0, 2000 PPM IN DRINKING WATER BEGINNING POST CARCINOGEN TREATMENT AND CONTINUING FOR 37 WK (STUDY DURATION: 40 WK), Route [Carcinogen]: SUBCUTANEOUS, Route [Promoter]: ORAL, Species: HAMSTER, Strain/Sex: HAMSTER/FEMALE): pancreas: adenocarcinoma

CCCCCCCC/C=C\CCCCCCCC(=O)OC1CC2CCC1(C)C2(C)C (stereo not given)
outcome (Carcinogen: 7,12-DIMETHYLBENZ(A)ANTHRACENE, Doses [Carcinogen]: TOP, Route [Carcinogen]: DERMAL, Route [Promoter]: DERMAL, Species: MOUSE, Strain/Sex: FEMALE): integumentary system (skin)
